Literature values, collected in US10548835B2, “Methods of reducing the signs of skin aging” (Kimberly-Clark Worldwide, Inc., priority 2014, dated 2020).

System: 3T3-L1 cells
Details: literature

In the case of Fucoidan, the “adipogenesis (adipocyte differentiation)” value is listed as “inhibit adipogenesis”.
